Measured values as given in US20260022143A1, “Cyclic Peptide Inhibitors of IL-23” (JANSSEN PHARMACEUTICA NV, priority 2022, published 2026).
Starred links: 1 amine or outer side, 2 acyl side, 3 side chain; linkers in the order of their positions; H or OH if unused. Positions of bridges follow the written chain, without caps; N, C: chain ends. Non-standard residues stand in square brackets, D forms with d. Residues, ends and D or L forms follow the SMILES beside them. *: point of attachment. X43 = C[N+](C)(C)CCCCCc1cn(-c2ccc(C[C@H](N[*:1])C(=O)[*:2])cc2)nn1; Me3N+(CH2)2O(CH2)2O(CH2)2CO = C[N+](C)(C)CCOCCOCCC(=O)*; X35 = Cc1cccc2c(C[C@H](N[*:1])C(=O)[*:2])cn(C)c12; Trp(7-Me) = Cc1cccc2c(C[C@H](N)C(=O)O)c[nH]c12; Hexanoyl(6-NMe3+) = C[N+](C)(C)CCCCCC(=O)*; 2Nal = N[C@@H](Cc1ccc2ccccc2c1)C(=O)O; AEF = NCCOc1ccc(C[C@H](N)C(=O)O)cc1; 3Pal = N[C@@H](Cc1cccnc1)C(=O)O; Lys(Me) = CNCCCC[C@H](N)C(=O)O; Pen = CC(C)(S)[C@H](N)C(=O)O; X55 = OC1(C(F)(F)F)CCN(*)CC1; X38 = C[N+](C)(C)CCCCCC*; Thp = NC1(C(=O)O)CCOCC1; X3 = C[N+](C)(C)CCCCC*; Me2NCH2CH2 = CN(C)CC*; Aib = CC(C)(N)C(=O)O; Sar = CNCC(=O)O

Assays:
IL-23R = molecular target: T1, IL-23R (Homo sapiens, UniProt Q5VWK5); test: IL23R Reporter Assay; format: cell-based; settings: HEK293 cells containing IL-23R, IL-12RP1 and STAT-inducible firefly luciferase reporter; 10 ng/mL IL-23 (EC90); 5 h at 37° C.; read-out: IL23R Reporter Assay
T1 construct: host or cells: HEK293
T1 sequence (Q5VWK5 24-629): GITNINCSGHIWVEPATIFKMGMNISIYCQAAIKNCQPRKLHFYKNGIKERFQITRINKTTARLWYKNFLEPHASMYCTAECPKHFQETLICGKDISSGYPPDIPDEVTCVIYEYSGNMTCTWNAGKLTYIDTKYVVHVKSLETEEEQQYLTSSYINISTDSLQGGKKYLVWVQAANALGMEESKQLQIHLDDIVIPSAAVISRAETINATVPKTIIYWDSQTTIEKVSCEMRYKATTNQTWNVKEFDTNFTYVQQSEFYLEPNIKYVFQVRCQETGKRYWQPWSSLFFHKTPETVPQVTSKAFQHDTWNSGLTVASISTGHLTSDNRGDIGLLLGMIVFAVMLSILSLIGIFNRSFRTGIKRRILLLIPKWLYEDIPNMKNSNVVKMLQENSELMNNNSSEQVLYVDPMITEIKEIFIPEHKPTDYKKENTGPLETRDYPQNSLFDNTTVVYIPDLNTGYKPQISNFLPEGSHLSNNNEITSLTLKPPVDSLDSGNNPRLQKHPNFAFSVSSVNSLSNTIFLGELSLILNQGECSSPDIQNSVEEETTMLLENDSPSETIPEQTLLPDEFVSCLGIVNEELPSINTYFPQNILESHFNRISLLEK

[1] = Exposed Polar Surface Area (EPSA); format: physicochemical; settings: SFC on Chirex 3014 column; sample 1 mM DMSO stock; read-out: EPSA
Summary of the method: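 SFC retention on a Chirex 3014 (S-valine/(R)-1-(α-naphthyl)ethylamine) column at 35 °C, 4 mL/min, 14 MPa outlet, 5–60% methanol/20 mM ammonium formate gradient in CO2. Retention times converted to EPSA (Å²) via linear calibration with 8 standards; samples from 1 mM DMSO stock, run in duplicate.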

| IC50 (IL-23R) [nM] | EPSA [1] [A^2] | SMILES |
| --- | --- | --- |
| 0.97 | 153 | CC(=O)N(C)CCCC[C@@H]1NC(=O)[C@H](Cc2c[nH]c3c(C)cccc23)NC(=O)[C@H]([C@@H](C)O)NC(=O)[C@H](CC(=O)N(C)C)NC(=O)[C@@H](NC(=O)CCOCCOCC[N+](C)(C)C)C(C)(C)SSC(C)(C)[C@@H](C(=O)N[C@@H](Cc2ccc(OCCCCC[N+](C)(C)C)cc2)C(=O)N[C@@H](Cc2ccc3ccccc3c2)C(=O)NC(C)(C)C(=O)N[C@@H](CCCCN(C)C(C)=O)C(=O)N[C@@H](CC(N)=O)C(=O)N[C@@H](Cc2cccnc2)C(=O)N(C)CC(=O)N(C)C)NC1=O [compound 341, cPEG3aCO-Pen(3)-N(N(Me)2)-T-7MeW-K(NMeAc)-Pen(3)-TMAPF-2Nal-Aib-K(NMeAc)-N-3Pya-Sar-CON(Me)2] ({Me3N+(CH2)2O(CH2)2O(CH2)2CO}-[Pen]D(NMe2)T[Trp(7-Me)][Lys(Me)](Ac)[Pen]Y(X3)[2Nal][Aib][Lys(Me)](Ac)N[3Pal][Sar]-NMe2; disulfide 1-6) |
| 3.4 | 140 | CC(=O)N[C@H](COCCOCC[N+](C)(C)C)C(=O)N[C@@H]1C(=O)N[C@@H](CC(=O)N(C)C)C(=O)N[C@@H]([C@@H](C)O)C(=O)N[C@@H](Cc2c[nH]c3c(C)cccc23)C(=O)N[C@@H](CCCCN(C)C(C)=O)C(=O)N[C@H](C(=O)N[C@@H](Cc2ccc(OCCOCCOCC[N+](C)(C)C)cc2)C(=O)N[C@@H](Cc2ccc3ccccc3c2)C(=O)NC2(C(=O)N[C@@H](CCCCN(C)C(C)=O)C(=O)N[C@@H](CC(N)=O)C(=O)N[C@@H](Cc3cccnc3)C(=O)N(C)CC(=O)N(C)C)CCOCC2)C(C)(C)SSC1(C)C [compound 232, MeCO-APEG2ser-Pen(3)-N(N(Me)2)-T-7MeW-K(NMeAc)-Pen(3)-APEG3F-2Nal-THP-K(NMeAc)-N-3Pya-Sar-CON(Me)2] |
| 3.2 | 149 | CC(=O)N(C)CCCC[C@@H]1NC(=O)[C@H](Cc2c[nH]c3c(C)cccc23)NC(=O)[C@H]([C@@H](C)O)NC(=O)[C@H](CC(=O)N(C)C)NC(=O)[C@@H](NC(=O)CCOCCOCC[N+](C)(C)C)C(C)(C)SSC(C)(C)[C@@H](C(=O)N[C@@H](Cc2ccc(OCCCCCC[N+](C)(C)C)cc2)C(=O)N[C@@H](Cc2ccc3ccccc3c2)C(=O)NC2(C(=O)N[C@@H](CCCCN(C)C(C)=O)C(=O)N[C@@H](CC(N)=O)C(=O)N[C@@H](Cc3cccnc3)C(=O)N(C)CC(=O)N(C)C)CCOCC2)NC1=O [compound 293, cPEG3aCO-Pen(3)-N(N(Me)2)-T-7MeW-K(NMeAc)-Pen(3)-TMA6F-2Nal-THP-K(NMeAc)-N-3Pya-Sar-CON(Me)2] ({Me3N+(CH2)2O(CH2)2O(CH2)2CO}-[Pen]D(NMe2)T[Trp(7-Me)][Lys(Me)](Ac)[Pen]Y(X38)[2Nal][Thp][Lys(Me)](Ac)N[3Pal][Sar]-NMe2; disulfide 1-6) |
| 2.1 | 138 | CC(=O)N[C@@H]1C(=O)N[C@@H](CC(=O)N(C)C)C(=O)N[C@@H]([C@@H](C)O)C(=O)N[C@@H](Cc2c[nH]c3c(C)cccc23)C(=O)N[C@@H](CCC(=O)N(C)C)C(=O)N[C@H](C(=O)N[C@@H](Cc2ccc(OCCN(C)C)cc2)C(=O)N[C@@H](Cc2ccc3ccccc3c2)C(=O)NC2(C(=O)N[C@@H](CCC(=O)N(C)C)C(=O)N[C@@H](CC(N)=O)C(=O)N[C@@H](Cc3cccnc3)C(=O)N(C)CC(=O)N(C)C)CCOCC2)C(C)(C)SSC1(C)C [compound 118, MeCO-Pen(3)-N(N(Me)2)-T-7MeW-Q(N(Me)2)-Pen(3)-AEF(N(Me)2)-2Nal-THP-Q(N(Me)2)-N-3Pya-Sar-CON(Me)2] (Ac-[Pen]D(NMe2)T[Trp(7-Me)]E(NMe2)[Pen]Y(Me2NCH2CH2)[2Nal][Thp]E(NMe2)N[3Pal][Sar]-NMe2; disulfide 1-6 (inferred)) |
| 5.2 | 145 | Cc1cccc2c(C[C@@H]3NC(=O)[C@H]([C@@H](C)O)NC(=O)[C@H](CC(=O)N(C)C)NC(=O)[C@@H](NC(=O)CCCCC[N+](C)(C)C)C(C)(C)SSC(C)(C)[C@@H](C(=O)N[C@@H](Cc4ccc(OCCCCC[N+](C)(C)C)cc4)C(=O)N[C@@H](Cc4ccc5ccccc5c4)C(=O)NC4(C(=O)N[C@@H](CCC(=O)N(C)C)C(=O)N[C@@H](CC(N)=O)C(=O)N[C@@H](Cc5cccnc5)C(=O)N(C)CC(=O)N(C)C)CCOCC4)NC(=O)[C@H](CCC(=O)N(C)C)NC3=O)c[nH]c12 [compound 101, 5cpaCO-Pen(3)-N(N(Me)2)-T-7MeW-Q(N(Me)2)-Pen(3)-TMAPF-2Nal-THP-Q(N(Me)2)-N-3Pya-Sar-CON(Me)2] ({Hexanoyl(6-NMe3+)}-[Pen]D(NMe2)T[Trp(7-Me)]E(NMe2)[Pen]Y(X3)[2Nal][Thp]E(NMe2)N[3Pal][Sar]-NMe2; disulfide 1-6) |
| 1.2 | 153 | CC(=O)N(C)CCCC[C@@H]1NC(=O)[C@H](Cc2c[nH]c3c(C)cccc23)NC(=O)[C@H]([C@@H](C)O)NC(=O)[C@H](CC(=O)N(C)C)NC(=O)[C@@H](NC(=O)CCOCCOCC[N+](C)(C)C)C(C)(C)SSC(C)(C)[C@@H](C(=O)N[C@@H](Cc2ccc(-n3cc(CCCCC[N+](C)(C)C)nn3)cc2)C(=O)N[C@@H](Cc2ccc3ccccc3c2)C(=O)NC2(C(=O)N[C@@H](CCCCN(C)C(C)=O)C(=O)N[C@@H](CC(N)=O)C(=O)N[C@@H](Cc3cccnc3)C(=O)N(C)CC(=O)N(C)C)CCOCC2)NC1=O [compound 335, cPEG3aCO-Pen(3)-N(N(Me)2)-T-7MeW-K(NMeAc)-Pen(3)-F(4TzlTMA5)-2Nal-THP-K(NMeAc)-N-3Pya-Sar-CON(Me)2] ({Me3N+(CH2)2O(CH2)2O(CH2)2CO}-[Pen]D(NMe2)T[Trp(7-Me)][Lys(Me)](Ac)[Pen][X43][2Nal][Thp][Lys(Me)](Ac)N[3Pal][Sar]-NMe2; disulfide 1-6) |
| 3.7 | 171 | CC(=O)NCCCC[C@@H]1NC(=O)[C@H](Cc2c[nH]c3c(C)cccc23)NC(=O)[C@H]([C@@H](C)O)NC(=O)[C@H](CC(N)=O)NC(=O)[C@@H](NC(C)=O)C(C)(C)SSC(C)(C)[C@@H](C(=O)N[C@@H](Cc2ccc(OCCN)cc2)C(=O)N[C@@H](Cc2ccc3ccccc3c2)C(=O)NC2(C(=O)N[C@@H](CCC(=O)O)C(=O)N[C@@H](CC(N)=O)C(=O)N[C@@H](Cc3cccnc3)C(=O)N(C)CC(=O)N3CCC(O)(C(F)(F)F)CC3)CCOCC2)NC1=O [compound 135] (Ac-[Pen]NT[Trp(7-Me)]K(Ac)[Pen][AEF][2Nal][Thp]EN[3Pal][Sar]-X55; disulfide 1-6 (inferred)) |
| 3 | 179 | CC(=O)NCCCC[C@@H]1NC(=O)[C@H](Cc2cn(C)c3c(C)cccc23)NC(=O)[C@H]([C@@H](C)O)NC(=O)[C@H](CC(N)=O)NC(=O)[C@@H](NC(C)=O)C(C)(C)SSC(C)(C)[C@@H](C(=O)N[C@@H](Cc2ccc(OCCN)cc2)C(=O)N[C@@H](Cc2ccc3ccccc3c2)C(=O)NC2(C(=O)N[C@@H](CCC(=O)O)C(=O)N[C@@H](CC(N)=O)C(=O)N[C@@H](Cc3cccnc3)C(=O)N(C)CC(N)=O)CCOCC2)NC1=O [compound 166] (Ac-[Pen]NT[X35]K(Ac)[Pen][AEF][2Nal][Thp]EN[3Pal][Sar]-NH2; disulfide 1-6 (inferred)) |
